Assay results as given in patent publication EP2524912A1, “Amine derivatives” (Bionomics Limited, priority 2011, dated 2012).
pIC50: −log10 of the molar value.

Each molecule was assayed against human Kv1.3 (Homo sapiens, UniProt P22001) (assay: Kv1.3 patch-clamp electrophysiology (planar electrode, whole-cell, steady state current)). Conditions: CHO/Kv1.3 stable cell line; steady state current amplitude at end of 500 ms depolarising pulse to +40 mV; values given as ranges; read-out: IC50 (Kv1.3 ephys steady state).
Assay type: cell-based
Experimental: The inhibition data shown for the compounds of the list below was calculated using the steady state current amplitude at the end of the depolarising pulse in patch clamp evaluations (as described in the Pharmacology Example 2).
The human Kv1.3 construct (Kv1.3/pENTR, clone IOH61428) was purchased from Invitrogen and subcloned into pcDNA 3.2-DEST (Invitrogen). CHO-K1 cells obtained from ATCC (cat #CCL-61) were transfected with the Kv1.3/pcDNA3.2DEST construct and a stable cell line was developed through two rounds of limiting dilution under G418 selection. Positive (Kv1.3 expressing) clones were identified using electrophysiology.
CHO/Kv1.x stable cell lines were grown in a humidified atmosphere at 37 °C, 5% CO2 in T-75 flasks containing F12 Kaighn's medium supplemented with 10% fetal calf serum, 2 mM L-glutamine, 100 units/ml penicillin, 100 µg/ml streptomycin and 500 µg/ml G418 (to maintain selection). CHO/Kv1.1 and CHO/Kv1.5 cells used for patching were transferred to 33 °C for 48 hours prior to use.
Kv1.x currents were measured using a planar electrode version (Nanion Technologies GMBH) of the patch-clamp technique. Whole-cell Kv1.x current transients were evoked by 500 ms depolarising voltage pulses to +40 mV from a holding potential of -80 mV applied at 10 s intervals for Kv1.1 and Kv1.5 and at 30 s intervals for Kv1.3 to allow adequate time for recovery from inactivation. Cells were continuously bathed in a buffered saline solution containing (mM): 160 NaCl, 4.5 KCI, 2 CaCl2, 1 MgCl2, 5 glucose, 10 HEPES, pH 7.4, 290-310 mOsm.Kg^-1. The internal (pipette) solution contained (mM): 10 NaCl, 70 KF, 75 KCI, 2 MgCl2, 10 HEPES, 10 EGTA, pH 7.2, 290-310 mOsm.Kg^-1. Series resistance compensation (60-80%) was applied when the peak current amplitude exceeded 2 nA.
Compounds were initially dissolved in DMSO to 10 mM. After further dilution in DMSO, compounds were finally diluted in bath solution 1/200 (to give a final DMSO concentration of 0.5%) and applied directly to the recording chamber. Compounds were added at increasing concentrations allowing ample time for steady state block to be achieved between each concentration. Each compound was tested at 5-6 different concentrations on 2-3 cells. IC50 values can be determined by fitting the average normalised reduction of either the current integral or the steady state current amplitude at the end of the depolarising pulse obtained at each compound concentration to the Hill equation. The IC50 data reported herein is based on the steady state calculation.

Sequence of human Kv1.3 (P22001 whole entry): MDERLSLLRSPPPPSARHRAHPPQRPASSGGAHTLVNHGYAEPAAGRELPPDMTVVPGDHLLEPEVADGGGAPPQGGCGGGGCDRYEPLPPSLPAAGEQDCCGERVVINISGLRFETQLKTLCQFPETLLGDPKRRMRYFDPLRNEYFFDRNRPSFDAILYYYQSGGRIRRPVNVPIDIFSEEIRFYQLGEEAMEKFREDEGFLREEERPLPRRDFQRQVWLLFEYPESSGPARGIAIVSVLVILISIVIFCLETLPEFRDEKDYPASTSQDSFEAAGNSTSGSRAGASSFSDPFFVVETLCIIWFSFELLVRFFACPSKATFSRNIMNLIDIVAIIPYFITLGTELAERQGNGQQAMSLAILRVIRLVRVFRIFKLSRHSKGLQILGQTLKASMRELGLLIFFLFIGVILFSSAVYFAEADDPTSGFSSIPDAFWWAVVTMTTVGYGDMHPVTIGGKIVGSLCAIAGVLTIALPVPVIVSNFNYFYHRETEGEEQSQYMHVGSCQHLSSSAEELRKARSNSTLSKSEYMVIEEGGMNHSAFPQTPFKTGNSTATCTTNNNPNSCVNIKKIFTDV

Structure (SMILES) | pIC50
CC(CCN(C(=O)CN1CCC(F)CC1)C(C)c1ccc2c(c1)CCC2)c1ccc(F)cc1 (stereo not drawn) [Example 70, N-[1-(2,3-dihydro-1H-inden-5-yl)ethyl]-N-[3-(4-fluorophenyl)butyl]-2-(4-fluoropiperidin-1-yl)acetamide] | 6.70 to 7.30
O=C(CCc1ccc(F)cc1)N(Cc1ccccn1)C(c1ccc(F)cc1)C1CCCC1 (stereo not drawn) [Example 21, N-[cyclopentyl(4-fluorophenyl)methyl]-3-(4-fluorophenyl)-N-(pyridin-2-ylmethyl)propanamide] | 6.70 to 7.30
COCc1ccccc1C(C)N(Cc1ccccn1)C(=O)CCc1ccc(F)cc1 (stereo not drawn) [Example 57, 3-(4-fluorophenyl)-N-{1-[2-(methoxymethyl)phenyl]ethyl}-N-(pyridin-2-ylmethyl)propanamide] | 6.00 to 6.70
